The values that follow come from patent US11479556B1, “Bifunctional compounds for degrading BTK via ubiquitin proteosome pathway” (NURIX THERAPEUTICS, INC., priority 2018, dated 2022).

Data set [1] deals with T1, BTK (Homo sapiens, UniProt Q06187).
T1 construct: endogenous in cells; host or cells: TMD8 cells
The data set is described as follows: Cellular BTK HTRF assay (BTK degradation) in TMD8 cells. The format is cell-based. The following applies: four hours incubation, Total-BTK HTRF relative to DMSO-treated cells. The essentials: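 TMD8 cells were treated with compounds (final DMSO <0.200) for four hours at 37° C, 5% CO2, then lysed for 30 minutes. Total BTK was measured by two-antibody HTRF, taking the 665/620 nm ratio with background subtracted and expressed relative to DMSO-treated cells. DC50 came from four-parameter nonlinear regression.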
In general terms: TR-FRET usually uses a lanthanide donor and a delayed reading to cut background.

The target of data set [2] is T2, BTK (Mus musculus, UniProt P35991).
T2 construct: from tissue; host or cells: whole blood or spleen of CD-1 or BALB/c mice
T2 sequence (P35991 whole entry): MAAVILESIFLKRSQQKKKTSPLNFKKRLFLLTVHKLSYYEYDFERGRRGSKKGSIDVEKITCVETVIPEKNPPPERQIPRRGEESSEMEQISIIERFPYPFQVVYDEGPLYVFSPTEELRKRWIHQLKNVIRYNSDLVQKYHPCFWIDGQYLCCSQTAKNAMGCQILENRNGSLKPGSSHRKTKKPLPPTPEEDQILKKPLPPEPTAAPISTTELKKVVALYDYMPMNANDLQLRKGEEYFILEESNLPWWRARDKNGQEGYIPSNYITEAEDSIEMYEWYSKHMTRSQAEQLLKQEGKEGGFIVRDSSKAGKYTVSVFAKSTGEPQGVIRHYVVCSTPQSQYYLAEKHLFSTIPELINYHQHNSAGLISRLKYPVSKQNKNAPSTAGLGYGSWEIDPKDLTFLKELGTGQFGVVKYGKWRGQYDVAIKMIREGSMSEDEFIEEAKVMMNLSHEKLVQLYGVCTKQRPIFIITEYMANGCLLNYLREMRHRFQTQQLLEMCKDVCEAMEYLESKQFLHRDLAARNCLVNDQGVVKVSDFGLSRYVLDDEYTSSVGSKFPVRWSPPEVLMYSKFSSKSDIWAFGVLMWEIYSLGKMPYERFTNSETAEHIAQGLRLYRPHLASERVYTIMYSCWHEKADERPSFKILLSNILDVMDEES
As to the kind of experiment: Mouse BTK degradation assay with oral dosing. The class given is in vivo. The following applies: CD-1 or BALB/c mice, oral gavage (PO); Yes = significant BTK degradation upon oral dosage. The procedure:
Example 68: Mouse BTK Degradation Assay with Oral Dosing
A method of determining the pharmacodynamic profile of compounds of the present invention (experimental compound) was performed by dosing either CD-1 or BALB/c mice with the compound. The experimental compound was prepared in a suitable formulation and was administered via oral gavage (PO) at a suitable dose level and frequency as informed by prior pharmacokinetic and tolerability studies. Following administration of the experimental compound, BTK levels in blood or splenocytes are measured using flow cytometry or HTRF. For assessment of BTK levels via flow cytometry, either whole blood or spleen were first treated with ACK RBC lysis buffer to facilitate lysing of red blood cells. Remaining cells were then stained with fluorophore-conjugated antibodies against CD45, TCR beta and CD45R (B220). Cell pellets were washed with 1×PBS and fixed and permeabilized for 24 hrs with Foxp3/Transcription Factor Fixation/Permeabilization Kit. Cells were then stained intracellularly with unconjugated BTK antibody and detected with a fluorophore-conjugated secondary antibody. Stained cells were run on an Attune NxT Acoustic Focusing Flow Cytometer (Thermo-Fisher A29004), and data was analyzed using FlowJo (v10.5.3) and GraphPad Prism (v7.00) software. Lymphocytes were gated for B cells defined as CD45+ TCR beta− B220+ and T cells as CD45+ TCR beta+ B220−. The BTK geometric mean fluorescence intensity (MFI) was calculated for B and T cells. Percent BTK degradation for each experimental compound treated sample was calculated using the equation described below: […]

Data set [3] addresses T3, Aiolos (Homo sapiens, UniProt Q96SW2+Q9UKT9).
T3 construct: Frozen human peripheral blood mononuclear cells (PBMCs) were thawed and treated with DMSO or compound for 24 hours; endogenous in cells; host or cells: human PBMCs (T cells gated CD3+CD20-)
As to the kind of experiment: Aiolos degradation flow cytometry assay in human PBMCs (T cells). The format is cell-based. Particulars: 24 hours, T cells (CD3+CD20-), read-out: Aiolos T Cell DC50. The protocol:
Example 67: Aiolos Degradation Assay
Frozen human peripheral blood mononuclear cells (PBMCs) were thawed and treated with DMSO or compound for 24 hours and then fixed and permeabilized using a Foxp3/Transcription Factor Fixation/Permeabilization Kit (eBioscience, 00-5523). Cells were stained with fluorophore-conjugated antibodies against CD20 (Biolegend 302330), CD3 (BD Pharmingen 552127), and Aiolos (Biolegend 371106). An additional set of DMSO-treated PBMCs was stained for CD20, CD3, and an AlexaFluor 647-conjugated mouse IgG1 isotype control antibody (Biolegend 400136). Stained cells were analyzed using an Attune NxT Acoustic Focusing Flow Cytometer (Thermo-Fisher A29004), and data was analyzed using FlowJo (v10.5.3) and GraphPad Prism (v7.00) software. Single lymphocytes were gated for B cells (CD20+CD3−) and T cells (CD3+CD20−), and the geometric mean fluorescence intensity (MFI) of Aiolos was calculated for each population. The MFI of the isotype control was calculated for each population and used to quantify background staining. Percent Aiolos degradation was calculated for each compound-treated sample using the following equation: […]
Four-parameter non-linear regressions were performed in GraphPad Prism 7.02 to obtain DC50 values. Aiolos T Cell DC50 values are provided in Table 4, wherein A<10.0 nM, 10.0 nM≤B≤1000 nM, and 1000 nM<C.
Background: In flow cytometry, cells or beads pass a laser one at a time.

A word on the DC50: it is the concentration giving 50% degradation.

T1 sequence (Q06187 whole entry): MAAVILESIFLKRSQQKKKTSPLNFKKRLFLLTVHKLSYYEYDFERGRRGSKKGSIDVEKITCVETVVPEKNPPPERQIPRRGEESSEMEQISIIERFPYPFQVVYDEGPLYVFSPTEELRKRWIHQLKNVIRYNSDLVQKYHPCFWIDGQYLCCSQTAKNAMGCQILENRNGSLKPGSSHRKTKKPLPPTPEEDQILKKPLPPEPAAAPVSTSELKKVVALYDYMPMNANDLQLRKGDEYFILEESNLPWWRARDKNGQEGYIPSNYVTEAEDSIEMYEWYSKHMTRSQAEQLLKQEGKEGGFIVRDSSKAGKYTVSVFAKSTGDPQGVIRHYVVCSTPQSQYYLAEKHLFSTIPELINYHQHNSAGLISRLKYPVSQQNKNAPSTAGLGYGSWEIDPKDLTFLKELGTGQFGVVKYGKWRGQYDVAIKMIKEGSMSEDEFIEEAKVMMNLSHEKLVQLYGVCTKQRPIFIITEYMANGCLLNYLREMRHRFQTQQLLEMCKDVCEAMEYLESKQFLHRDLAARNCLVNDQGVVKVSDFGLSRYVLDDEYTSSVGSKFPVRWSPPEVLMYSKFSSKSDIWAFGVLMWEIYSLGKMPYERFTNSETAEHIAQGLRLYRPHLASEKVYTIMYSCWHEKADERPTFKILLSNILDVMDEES
T3 sequence (Q9UKT9 whole entry): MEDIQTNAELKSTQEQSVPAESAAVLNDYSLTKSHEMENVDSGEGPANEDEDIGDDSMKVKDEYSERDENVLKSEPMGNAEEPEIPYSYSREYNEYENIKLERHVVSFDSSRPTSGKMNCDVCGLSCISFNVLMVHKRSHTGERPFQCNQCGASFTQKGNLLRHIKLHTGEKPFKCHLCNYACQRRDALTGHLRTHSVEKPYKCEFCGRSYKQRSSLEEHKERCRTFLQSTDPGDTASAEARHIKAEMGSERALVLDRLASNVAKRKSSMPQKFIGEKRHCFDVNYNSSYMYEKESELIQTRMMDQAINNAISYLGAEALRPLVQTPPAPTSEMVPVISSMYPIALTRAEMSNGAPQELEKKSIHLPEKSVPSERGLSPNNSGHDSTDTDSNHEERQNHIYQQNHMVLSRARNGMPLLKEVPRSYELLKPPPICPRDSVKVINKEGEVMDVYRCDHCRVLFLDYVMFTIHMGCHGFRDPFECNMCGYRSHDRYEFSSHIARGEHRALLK
T3 sequence (Q96SW2 whole entry): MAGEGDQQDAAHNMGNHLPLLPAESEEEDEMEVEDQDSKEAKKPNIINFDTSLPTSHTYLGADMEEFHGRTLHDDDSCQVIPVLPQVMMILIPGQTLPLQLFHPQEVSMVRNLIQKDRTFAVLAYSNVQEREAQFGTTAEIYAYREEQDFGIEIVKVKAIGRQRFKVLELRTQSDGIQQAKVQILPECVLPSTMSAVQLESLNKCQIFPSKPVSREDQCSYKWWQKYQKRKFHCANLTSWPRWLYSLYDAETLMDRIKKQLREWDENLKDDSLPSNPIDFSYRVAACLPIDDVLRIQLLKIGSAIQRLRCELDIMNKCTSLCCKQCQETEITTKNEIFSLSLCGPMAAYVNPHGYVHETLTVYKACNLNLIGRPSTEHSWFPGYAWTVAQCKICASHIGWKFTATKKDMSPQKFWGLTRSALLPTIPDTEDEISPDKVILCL
T3 sequence (Q16531 whole entry partner): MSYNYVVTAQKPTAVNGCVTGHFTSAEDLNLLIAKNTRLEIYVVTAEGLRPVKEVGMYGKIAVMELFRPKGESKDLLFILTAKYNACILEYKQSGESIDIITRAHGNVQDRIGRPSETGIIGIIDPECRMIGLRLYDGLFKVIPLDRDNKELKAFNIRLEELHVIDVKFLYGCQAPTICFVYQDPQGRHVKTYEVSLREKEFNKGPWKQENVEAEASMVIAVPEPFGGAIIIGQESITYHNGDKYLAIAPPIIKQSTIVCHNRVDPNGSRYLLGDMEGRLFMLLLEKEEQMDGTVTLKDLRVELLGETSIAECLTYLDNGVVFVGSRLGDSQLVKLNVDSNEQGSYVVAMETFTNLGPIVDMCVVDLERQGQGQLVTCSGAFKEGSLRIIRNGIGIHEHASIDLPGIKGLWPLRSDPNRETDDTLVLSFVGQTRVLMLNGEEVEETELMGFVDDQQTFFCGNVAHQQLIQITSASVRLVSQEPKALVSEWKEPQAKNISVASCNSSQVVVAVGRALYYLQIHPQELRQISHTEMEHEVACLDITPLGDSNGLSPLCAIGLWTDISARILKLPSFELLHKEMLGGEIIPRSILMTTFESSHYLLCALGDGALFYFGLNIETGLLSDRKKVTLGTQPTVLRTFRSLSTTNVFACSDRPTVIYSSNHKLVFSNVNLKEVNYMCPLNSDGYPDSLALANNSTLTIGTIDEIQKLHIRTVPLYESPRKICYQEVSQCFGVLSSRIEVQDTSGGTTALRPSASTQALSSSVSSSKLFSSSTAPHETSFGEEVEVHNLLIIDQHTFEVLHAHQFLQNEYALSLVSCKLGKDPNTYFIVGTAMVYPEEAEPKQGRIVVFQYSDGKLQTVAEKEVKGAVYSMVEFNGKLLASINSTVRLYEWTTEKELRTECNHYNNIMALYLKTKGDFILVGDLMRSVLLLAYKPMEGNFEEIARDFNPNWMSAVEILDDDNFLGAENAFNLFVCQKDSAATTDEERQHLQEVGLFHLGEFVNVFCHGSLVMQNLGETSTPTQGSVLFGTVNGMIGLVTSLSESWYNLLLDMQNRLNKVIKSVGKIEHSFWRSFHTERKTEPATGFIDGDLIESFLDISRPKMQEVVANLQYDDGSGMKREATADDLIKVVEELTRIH

As for `CN1CCN([C@@H]2CCCN(c3cnc(C(N)=O)c(Nc4ccc(C5CCN(C[C@H]6CCN(c7ccc8c(c7)C(=O)N(C7CCC(=O)NC7=O)C8=O)C6)CC5)cc4)n3)C2)C1=O` (stereo partly drawn) [Compound 44], the DC50 in data set [1] is under 5 nM. Further, in data set [2], the “BTK degradation after oral dosing” value is given as “Yes”.

`NC(=O)c1ncc(N2CCC[C@H](N3CCOC3=O)C2)nc1Nc1ccc(N2CCC(C3CN(c4ccc5c(c4)C(=O)N(C4CCC(=O)NC4=O)C5=O)C3)CC2)cc1` (stereo partly drawn) [Compound 70] displayed a DC50 in data set [1] of under 5 nM. For the same compound, the “BTK degradation after oral dosing” value in data set [2] is reported as “Yes”.

Turning to `CN1CCN([C@@H]2CCCN(c3cnc(C(N)=O)c(Nc4ccc(C5(C)CCN(C[C@H]6CCN(c7ccc8c(c7)C(=O)N(C7CCC(=O)NC7=O)C8=O)C6)CC5)cc4)n3)C2)C1=O` (stereo partly drawn) [Compound 71], in data set [1], the DC50 was under 5 nM. In data set [2], the “BTK degradation after oral dosing” value is on record as “Yes”.

For the compound `CN1CCN([C@@H]2CCCN(c3cnc(C(N)=O)c(Nc4ccc(C5CCN(CC6CCN(c7ccc8c(=O)n(C9CCC(=O)NC9=O)ccc8c7)CC6)CC5)cc4)n3)C2)C1=O` (stereo partly drawn) [Compound 72], the DC50 in data set [1] was under 5 nM. In addition, the “BTK degradation after oral dosing” value in data set [2] is listed as “Yes”.

On to `NC(=O)c1ncc(N2CCC[C@@H](N3CCOC3=O)C2)nc1Nc1ccc(C2CCN(C[C@H]3CCN(c4ccc5c(c4)C(=O)N(C4CCC(=O)NC4=O)C5=O)C3)CC2)cc1` (stereo partly drawn) [Compound 73], for which the DC50 in data set [1] is under 5 nM. Further, the “BTK degradation after oral dosing” value in data set [2] is recorded as “Yes”.

On to `CN1CCN([C@H]2CCCN(c3cnc(C(N)=O)c(Nc4ccc(C5(C)CCN(C6CN(c7ccc8c(c7)C(=O)N(C7CCC(=O)NC7=O)C8=O)C6)CC5)cc4)n3)C2)C1=O` (stereo partly drawn) [Compound 74], for which the DC50 in data set [1] is under 5 nM. Also, the “BTK degradation after oral dosing” value in data set [2] is listed as “Yes”.

The compound `Cn1cc(Nc2nc(N3CCC[C@H](N4CC5(CN(CC6CCN(c7ccc(C(=O)NC8CCC(=O)NC8=O)nc7)CC6)C5)OC4=O)C3)cnc2C(N)=O)cn1` (stereo partly drawn) [Compound 131] showed a DC50 in data set [1] of under 5 nM. In data set [2], the “BTK degradation after oral dosing” value is “Yes”.

Consider `NC(=O)c1ncc(-c2nccs2)nc1Nc1ccc(N2CCC3(CCN(Cc4ccc5c(c4)C(=O)N(C4CCC(=O)NC4=O)C5=O)CC3)CC2)cc1` (stereo not drawn) [Compound 150], for which, in data set [1], the DC50 lay in the range of 5 to 15 nM. Also, the “BTK degradation after oral dosing” value in data set [2] is “Yes”.

As to `CN1CCN([C@@H]2CCCN(c3cnc(C(N)=O)c(Nc4ccc(C5CCN(CCCNc6cccc7c6C(=O)N(C6CCC(=O)NC6=O)C7=O)CC5)cc4)n3)C2)C1=O` (stereo partly drawn) [Compound 155], the DC50 in data set [1] was under 5 nM; in data set [3] it was 10 to 1000 nM.

Take `CN1CCN([C@@H]2CCCN(c3cnc(C(N)=O)c(Nc4ccc(C5CCN(CC6CCN(c7ccc8c(c7)n(C)c(=O)n8C7CCC(=O)NC7=O)CC6)CC5)cc4)n3)C2)C1=O` (stereo partly drawn) [Compound 156]: the DC50 in data set [1] is under 5 nM; in data set [3], under 10 nM.

As to `CN1CCN(c2cnc(C(N)=O)c(Nc3ccc(C4CCN(C[C@H]5CCN(c6ccc7c(c6)C(=O)N(C6CCC(=O)NC6=O)C7=O)C5)CC4)cc3)n2)CC1` (stereo partly drawn) [Compound 157], the DC50 in data set [1] was 5 to 15 nM; in data set [3] it was over 1000 nM.

`CN1CCN([C@@H]2CCCN(c3cnc(C(N)=O)c(Nc4ccc(C5CCN(CC6CCN(c7ccc(OC8CCC(=O)NC8=O)cn7)CC6)CC5)cc4)n3)C2)C1=O` (stereo partly drawn) [Compound 166]: the DC50 in data set [1] is under 5 nM; in data set [3] it was over 1000 nM.
